Measurements from paper PMC9103660, “Two Novel Antihypertensive Peptides Identified in Millet Bran Glutelin-2 Hydrolysates: Purification, In Silico Characterization, Molecular Docking with ACE and Stability in Various Food Processing Conditions” (Foods, 2022).
“Also recorded” adds a separate entry of the source. Peptide text beside a SMILES is read from it.

Tests used:
[1] = proline-rich literature peptides; cited from earlier work
Source text: ACE-inhibitory peptides should have sufficient resistance to digestion by proteases existing in the gastrointestinal tract to exert antihypertension activity in the body.

ACE [2] = system: ACE; design: method as in 2 sources, ref 34, 35 = [34]; PMID 32220144; doi:10.1111/1750-3841.15115; 34. Zheng Y.J. Wang X. Zhuang Y.L. Li Y. Shi P.Q. Tian H.L. Li X.T. Chen X. Isolation of novel ACE-inhibitory peptide from naked oat globulin hydrolysates in silico approach: Molecular docking, in viv || [35]; PMID 29606478; doi:10.1016/j.foodchem.2018.02.107; 35. Tu M. Wang C. Chen C. Zhang R. Liu H. Lu W. Jiang L. Du M. Identification of a novel ACE-inhibitory peptide from casein and evaluation of the inhibitory mechanisms Food Chem. 2018 256 98 104 10.10 ||| ref 20 = [20]; doi:10.1016/j.jff.2016.11.021; 20. Zheng Y.J. Li Y. Zhang Y.L. Ruan X.H. Zhang R.G. Purification, characterization, synthesis, in vivo ACE inhibition and in vitro antihypertensive activity of bioactive peptides derived from palm ke; conditions: cited from earlier work; for IC50: literature peptides, read-out: IC50 (ACE inhibition)
ACE [3] = experiment: ACE inhibition after simulated gastrointestinal digestion; assay type: in vitro ADME; conditions: simulated gastric fluid (pepsin, pH 2.0) 90 min then simulated intestinal fluid (trypsin, bile salt, pH 6.8) 180 min, 37 °C, peptide 1 mg/mL; read-out ACE IC50 before/after
Experimental: As per the same procedure described by Jimsheena and Gowda, the inhibition of ACE was evaluated by comparing the quantity of produced hippuric acid before and after the addition of the peptides. The IC50 value was calculated from the regression equation of ACE inhibition percentage for different concentrations of the sample and defined as the concentration of sample inhibiting ACE activity by 50%.
Mixtures of trypsin (0.45 g), pig bile salt (3 g) and NaHCO3 (6.25 g) dissolved in 100 mL of dH2O (pH 6.8) were used to simulate the intestinal fluid, whereas pepsin (40 mg) and NaCl (0.877 g) dissolved in 100 mL of dH2O (pH 2.0) were used to simulate the gastric fluid (Sun et al., 2021). Peptide solutions (dissolved in ultrapure water, 1 mg/mL) were incubated at 37 °C in a stirring bath (140 r/min) for 15 min, and then the simulated gastric fluid was added (gastric fluid: peptide solution = 1: 10 v/v), and the mixture was further incubated at 37 °C (140 r/min) for 90 min. Then, the reaction solution was adjusted to pH 6.8 with Na2HPO4. The simulated intestinal fluid (the fluid: peptide solution = 1: 10, v/v) was added, and the mixture was stirred (140 r/min) at 37 °C for 180 min. All reaction solutions were heated at 100 °C for 8 min to inactivate the enzymes. The ACE inhibition activities of the peptides before and after digestion were separately determined to evaluate their stability.

Row | Molecule | stability during gastrointestinal digestion [1] | inhibition mode towards ACE (ACE [2]) | IC50 (ACE [2]) [µM] | stability during simulated gastrointestinal digestion (ACE [3])
1 | KPVPR [proline-rich peptide identified in canary seeds] | excellent stability |  |  | 
2 | SSYYPFK | excellent stability | a competitive inhibitor | 91.8 | 
3 | CSCC[C@H](NC(=O)[C@@H]1CCCN1C(=O)[C@@H]1CCCN1)C(=O)N[C@@H](Cc1c[nH]c2ccccc12)C(=O)N1CCC[C@H]1C(=O)N[C@@H](Cc1ccccc1)C(=O)N[C@H](C(=O)O)C(C)C [PPMWPFV, Pro-Pro-Met-Trp-Pro-Phe-Val] (H-PPMWPFV-OH) |  |  |  | resistant; also recorded: relatively stable; also recorded: relatively high stability
4 | LHPQ [proline-rich peptide identified in canary seeds] | excellent stability |  |  | 
5 | ELHPQ [proline-rich peptide identified in canary seeds] | excellent stability |  |  | 
6 | CC(C)C[C@H](NC(=O)[C@H](CC(C)C)NC(=O)[C@@H]1CCCN1)C(=O)N[C@@H](CCCCN)C(=O)O [PLLK, Pro-Leu-Leu-Lys] (H-PLLK-OH) |  |  |  | resistant; also recorded: relatively stable; also recorded: relatively high stability
7 | NMAINPSKENLCSTFCK |  | a competitive inhibitor of ACE | 129 | 
